Assay results from patent publication US20100168079A1 (priority 2008, published 2010).

The compounds below were run against T1, human S1P1 receptors (Homo sapiens, UniProt P21453) (assay: Human S1P1 Receptor Calcium FLIPR Antagonist Assay (HeLa Gα16 S1P1)). Conditions: relative antagonism of Ca2+ signal evoked by probing agonist GNF-AC-1 at EC80; HeLa-S1P1/Gα16 cells.
T1 construct: myc (N); expressed in transfected cells; host or cells: HeLa (human cervix carcinoma, ATCC CCL2), HeLa-S1P1/Gα16 cell clone 1
Format: cell-based
Experimental: Human S1P1 Receptor Calcium FLIPR Antagonist Assay
The cells are plated in 384 well black plates (10′000 cells per well). […] After washing, the cells are transferred to the FLIPR. The test compounds are added at different concentrations […]) in HBSS in the presence of 0.1% BSA and changes in fluorescence are recorded (indication of agonism). The probing agonist is added 20-30 minutes afterwards to the wells at a concentration giving 80% of the maximal activity (EC80). After each addition, time points are collected as follows: 20 time points (2 seconds) before the addition of the agonist (Fmin) and 60 time points (1 or 2 seconds) after the addition of the probing agonist. This allows the determination of the maximal fluorescence (Fmax). The ratio (Fmax-Fmin)/Fmin is plotted against the log of the concentration of the test compounds and the IC50 (relative antagonism) is calculated using the XLfit-4 software. […] A concentration-response curve of the probing agonist is determined on each plate in parallel.

T1 sequence (P21453 whole entry): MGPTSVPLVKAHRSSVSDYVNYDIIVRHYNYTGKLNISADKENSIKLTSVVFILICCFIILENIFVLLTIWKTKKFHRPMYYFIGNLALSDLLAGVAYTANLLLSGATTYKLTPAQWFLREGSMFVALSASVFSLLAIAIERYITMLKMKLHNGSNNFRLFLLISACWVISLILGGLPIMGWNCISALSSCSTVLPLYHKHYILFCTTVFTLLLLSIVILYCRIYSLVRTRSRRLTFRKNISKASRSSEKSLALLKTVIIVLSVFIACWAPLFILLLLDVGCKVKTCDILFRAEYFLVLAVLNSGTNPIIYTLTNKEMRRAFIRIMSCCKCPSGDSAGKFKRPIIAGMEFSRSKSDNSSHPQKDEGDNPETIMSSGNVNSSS

Structure (SMILES)	IC50 [nM]
Cc1cc(C(C)Nc2cccc(-c3cc(C)c(C(=O)N[C@@H](C)C(=O)O)c(C)c3)c2)cc(C)c1Cl (stereo partly drawn) [Example 29, (S)-2-({3′-[1-(4-Chloro-3,5-dimethyl-phenyl)-ethylamino]-3,5-dimethyl-biphenyl-4-carbonyl}-amino)-propionic acid]	2
CCC(Nc1cccc(-c2cc(C)c(C(=O)NC3(C(=O)O)CC3)c(C)c2)c1)c1ccc(Cl)c(C)c1 (centres unmarked) [Example 27, 1-({3′-[1-(4-Chloro-3-methyl-phenyl)-propylamino]-3,5-dimethyl-biphenyl-4-carbonyl}-amino)-cyclopropanecarboxylic acid]	2
Cc1cc(-c2cccc(NC(C)c3ccc(Cl)c(Cl)c3)c2)cc(C)c1C(=O)N[C@@H](C)C(=O)O (some centres unmarked) [Example 10]	2
Cc1cc(-c2cccc(NC(C)c3ccc(Cl)c(C(F)(F)F)c3)c2)cc(C)c1C(=O)N[C@@H](C)C(=O)O (some centres unmarked) [Example 14]	4
Cc1cc(C)cc(C(C)Nc2cccc(-c3cc(C)c(C(=O)N[C@@H](C)C(=O)O)c(C)c3)c2)c1 (stereo partly drawn) [Example 28, (S)-2-({3′-[1-(3,5-Dimethyl-phenyl)-ethylamino]-3,5-dimethyl-biphenyl-4-carbonyl}-amino)-propionic acid]	3
Cc1cc(C(C)Nc2cccc(-c3ccc(C(=O)N(C)[C@@H](C)C(=O)O)c(Cl)c3)c2)ccc1Cl (stereo partly drawn) [Example 47, (S)-2-({3-Chloro-3′-[1-(4-chloro-3-methyl-phenyl)-ethylamino]-biphenyl-4-carbonyl}-methyl-amino)-propionic acid]	2
COc1ccc(C(C)Nc2cccc(-c3cc(C)c(C(=O)N[C@@H](C)C(=O)O)c(C)c3)c2)cc1Cl (stereo partly drawn) [Example 1, (S)-2-({3′-[1-(3-Chloro-4-methoxy-phenyl)-ethylamino]-3,5-dimethyl-biphenyl-4-carbonyl}-amino)-propionic acid]	2
Cc1cc([C@@H](C)Nc2cccc(-c3cc(C)c(C(=O)N[C@@H](CN)C(=O)O)c(C)c3)c2)ccc1Cl [Example 114, (S)-3-Amino-2-({3′-[(R)-1-(4-chloro-3-methyl-phenyl)-ethylamino]-3,5-dimethyl-biphenyl-4-carbonyl}-amino)-propionic acid]	1
COc1c(F)cc(C(C)Nc2cccc(-c3cc(C)c(C(=O)N[C@@H](C)C(=O)O)c(C)c3)c2)cc1F (stereo partly drawn) [Example 34, (S)-2-({3′-[1-(3,5-Difluoro-4-methoxy-phenyl)-ethylamino]-3,5-dimethyl-biphenyl-4-carbonyl}-amino)-propionic acid]	3
Cc1cc(-c2cccc(NC(C)c3ccc(F)c(OC(F)(F)F)c3)c2)cc(C)c1C(=O)N[C@@H](C)C(=O)O (stereo partly drawn) [Example 17, (S)-2-({3′-[1-(4-Fluoro-3-trifluoromethoxy-phenyl)-ethylamino]-3,5-dimethyl-biphenyl-4-carbonyl}-amino)-propionic acid]	5
Cc1ccc(C(C)Nc2cccc(-c3cc(C)c(C(=O)N[C@@H](C)C(=O)O)c(C)c3)c2)cc1C (stereo partly drawn) [Example 11, (S)-2-({3′-[1-(3,4-Dimethylphenyl)-ethylamino]-3,5-dimethyl-biphenyl-4-carbonyl}-amino)-propionic acid]	4
CCC(Nc1cccc(-c2ccc(C(=O)N(C)[C@@H](C)C(=O)O)c(C(F)(F)F)c2)c1)c1ccc(Cl)c(C)c1 (stereo partly drawn) [Example 67, (S)-2-({3′-[1-(4-Chloro-3-methyl-phenyl)-propylamino]-3-trifluoromethyl-biphenyl-4-carbonyl}-methyl-amino)-propionic acid]	3
Cc1cc(C(C)Nc2cccc(-c3ccc(C(=O)N[C@@H](C)C(=O)O)c(C(F)(F)F)c3)c2)cc(C)c1Cl (stereo partly drawn) [Example 64, (S)-2-({3′-[1-(4-Chloro-3,5-dimethyl-phenyl)-ethylamino]-3-trifluoromethyl-biphenyl-4-carbonyl}-amino)-propionic acid]	1
Cc1cc(C(C)Nc2cccc(-c3cc(F)c(C(=O)N[C@@H](C)C(=O)O)c(F)c3)c2)cc(C)c1Cl (stereo partly drawn) [Example 56, (S)-2-({3′-[1-(4-Chloro-3,5-dimethyl-phenyl)-ethylamino]-3,5-difluoro-biphenyl-4-carbonyl}-amino)-propionic acid]	1
Cc1cc(C(C)Nc2cccc(-c3ccc(C(=O)N[C@@H](C)C(=O)O)c(Cl)c3)c2)cc(C)c1Cl (stereo partly drawn) [Example 52, (S)-2-({3-Chloro-3′-[1-(4-chloro-3,5-dimethyl-phenyl)-ethylamino]-biphenyl-4-carbonyl}-amino)-propionic acid]	1
CC[C@H](c1ccc(Cl)c(C)c1)N(C)c1ccc(F)c(-c2cc(C)c(C(=O)N(C)[C@@H](C)C(=O)O)c(C)c2)c1 [Example 118, (S)-2-[(5′-{[(R)-1-(4-Chloro-3-methyl-phenyl)-propyl]-methyl-amino}-2′-fluoro-3,5-dimethyl-biphenyl-4-carbonyl)-methyl-amino]-propionic acid]	4
CC[C@@H](Nc1cccc(-c2cc(C)c(C(=O)N(C)[C@@H](C)C(=O)O)c(C)c2)c1)c1ccc(Cl)c(C)c1 [Example 107, (S)-2-({3′-[(R)-1-(4-Chloro-3-methyl-phenyl)-propylamino]-3,5-dimethyl-biphenyl-4-carbonyl}-methyl-amino)-propionic acid]	1
CCC(Nc1ccc(F)c(-c2ccc(C(=O)N(C)[C@@H](C)C(=O)O)c(C(F)(F)F)c2)c1)c1ccc(Cl)c(C)c1 (stereo partly drawn) [Example 89, (S)-2-({5′-[1-(4-Chloro-3-methyl-phenyl)-propylamino]-2′-fluoro-3-trifluoromethyl-biphenyl-4-carbonyl}-methyl-amino)-propionic acid]	13
COc1c(F)cc(C(C)Nc2cccc(-c3cc(C)c(C(=O)N[C@@H](C)C(=O)O)c(C)c3)c2)cc1Cl (stereo partly drawn) [Example 36, (S)-2-({3′-[(3-Chloro-5-fluoro-4-methoxy-phenyl)-ethylamino]-3,5-dimethyl-biphenyl-4-carbonyl}-amino)-propionic acid]	2
COc1ccc(C(C)Nc2cccc(-c3cc(C)c(C(=O)N[C@@H](C)C(=O)O)c(C)c3)c2)cc1C(F)(F)F (stereo partly drawn) [Example 33, (S)-2-({3′-[1-(4-Methoxy-3-trifluoromethyl-phenyl)-ethylamino]-3,5-dimethyl-biphenyl-4-carbonyl}-amino)-propionic acid]	1
Cc1cc(C(Nc2cccc(-c3ccc(C(=O)N(C)C4(C(=O)O)CC4)c(C(F)(F)F)c3)c2)C(F)(F)F)ccc1Cl (centres unmarked) [Example 93, 1-({3′-[1-(4-Chloro-3-methyl-phenyl)-2,2,2-trifluoro-ethylamino]-3-trifluoromethyl-biphenyl-4-carbonyl}-methyl-amino)-cyclopropanecarboxylic acid]	4
Cc1cc(C(Nc2cccc(-c3ccc(C(=O)N[C@@H](C)C(=O)O)c(C(F)(F)F)c3)c2)C(F)(F)F)ccc1Cl (stereo partly drawn) [Example 92, (S)-2-({3′-[1-(4-Chloro-3-methyl-phenyl)-2,2,2-trifluoro-ethylamino]-3-trifluoromethyl-biphenyl-4-carbonyl}-amino)-propionic acid]	4
Cc1cc(C(C)Nc2cccc(-c3cc(C)c(C(=O)NC4(C(=O)O)CNC4)c(C)c3)c2)ccc1Cl (centres unmarked) [Example 79, 3-({3′-[1-(4-Chloro-3-methyl-phenyl)-ethylamino]-3,5-dimethyl-biphenyl-4-carbonyl}-amino)-azetidine-3-carboxylic acid]	2
Cc1cc(-c2cccc(NC(C)c3cc(C)c(Cl)c(C)c3)c2)ccc1C(=O)N(C)[C@@H](C)C(=O)O (stereo partly drawn) [Example 59, (S)-2-({3′-[1-(4-Chloro-3,5-dimethyl-phenyl)-ethylamino]-3-methyl-biphenyl-4-carbonyl}-methyl-amino)-propionic acid]	3
CCC(Nc1cccc(-c2ccc(C(=O)N[C@@H](C)C(=O)O)c(Cl)c2)c1)c1ccc(Cl)c(C)c1 (stereo partly drawn) [Example 60, (S)-2-({3-Chloro-3′-[1-(4-chloro-3-methyl-phenyl)-propylamino]-biphenyl-4-carbonyl}-amino)-propionic acid]	1
CCc1cc(-c2cccc(NC(C)c3ccc(Cl)c(C)c3)c2)ccc1C(=O)N(C)[C@@H](C)C(=O)O (stereo partly drawn) [Example 43, (S)-2-({3′-[1-(4-Chloro-3-methyl-phenyl)-ethylamino]-3-ethyl-biphenyl-4-carbonyl}-methyl-amino)-propionic acid]	3
Cc1cc(F)cc(C(C)Nc2cccc(-c3cc(C)c(C(=O)N[C@@H](C)C(=O)O)c(C)c3)c2)c1 (stereo partly drawn) [Example 19, (S)-2-({3′-[1-(3-Fluoro-5-methyl-phenyl)-ethylamino]-3,5-dimethyl-biphenyl-4-carbonyl}-amino)-propionic acid]	2
Cc1cc([C@@H](C)Nc2cccc(-c3ccc(C(=O)N[C@@H](C)C(=O)O)c(C)c3)c2)ccc1Cl [Example 40, (S)-2-({3′-[(R)-1-(4-Chloro-3-methyl-phenyl)-ethylamino]-3-methyl-biphenyl-4-carbonyl}-amino)-propionic acid]	2
Cc1cc(C(C)Nc2cccc(-c3cc(C)c(C(=O)N[C@@H](C)C(=O)O)c(C)c3)c2)c(F)cc1Cl (stereo partly drawn) [Example 16, (S)-2-({3′-[1-(4-Chloro-2-fluoro-5-methyl-phenyl)-ethylamino]-3,5-dimethyl-biphenyl-4-carbonyl}-amino)-propionic acid]	2
